Here are results for 14 molecules from patent publication US5089623A, “Certain imidate insecticides” (Imperial Chemical Industries Plc, priority 1990, dated 1992).

SMILES strings stand for the structures. Bounds are passed on as bounds.

Holding throughout (type): in vivo
In assay [1] the test system is Tobacco Budworm [Heliothis virescens (Fabricius)] eggs. Put plainly: Tobacco budworm egg test (TBW-E). The following applies: percent in solution.
In assay [2] the test system is Maize weevil [Sitophilus Zeamais (Motschulsky)]. Put plainly: Maize weevil test (MW). The following applies: adult weevils, treated corn seeds, 48 hours, percent in solution. In outline:
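Adult weevils (10) were placed with four corn seeds that had been dipped 2-3 s in compound dissolved in 50:50 acetone:water, then dried, and held at about 25° C. Mortality was scored at 48 h. LC50 was taken from dosage-mortality curves and expressed as percent compound in solution, from a 0.01% top concentration.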

The subject of assay [3] is Housefly [Musca domestica]. Briefly: Housefly insecticidal test (HF). The following applies: per 25 female houseflies, 48 hours.
Assay [4] deals with Cabbage Looper [Trichoplusia ni (Hubner)]. Put plainly: Cabbage looper test (CL). Conditions: second-instar larvae, 3-5 days, percent in solution.

Turning to `CC(C)C(=Nc1ccc(C(F)(F)F)cc1Cl)OCc1cccc(Oc2ccc(F)cc2)c1` [Compound 427], in assay [1], the “LC50 TBW E” value was above 0.1%. For the same molecule, the “LC50 MW” value in assay [2] is above 0.01%. The “LC50 HF” value in assay [3] was above 100 µg. For the same molecule, the “LC50 CL” value in assay [4] was below 0.1%.

With `CC(C)C(=Nc1ccc(C(F)(F)F)cc1Cl)OCc1ccc(F)c(Oc2ccccc2)c1` [Compound 428], the “LC50 TBW E” value in assay [1] was above 0.1%. The “LC50 MW” value in assay [2] is above 0.01%. Further, in assay [3], the “LC50 HF” value is above 100 µg. Besides, in assay [4], the “LC50 CL” value is given as 0.0017%.

With `CC(C)C(=Nc1ccc(OCC(F)(F)F)c(F)c1)OCc1cccc(Oc2ccc(Cl)cc2)c1` [Compound 429], the “LC50 TBW E” value in assay [1] is recorded as below 0.1%. Moreover, the “LC50 MW” value in assay [2] is recorded as above 0.01%. Further, the “LC50 HF” value in assay [3] was above 100 µg. Moreover, the “LC50 CL” value in assay [4] stood at 0.0017%.

As to `C=C(C)C(=Nc1ccc(C(F)(F)F)cc1)OCc1cccc(Oc2ccccc2)c1` [Compound 430], the “LC50 TBW E” value in assay [1] is listed as 0.032%. Moreover, the “LC50 MW” value in assay [2] is 0.004%. The “LC50 HF” value in assay [3] is below 100 µg. Further, the “LC50 CL” value in assay [4] came out at 0.001%.

Take `CC(C)C(=Nc1ccc(C(F)(F)F)c(Br)c1)OCc1ccc(F)c(Oc2ccccc2)c1` [Compound 434]: the “LC50 TBW E” value in assay [1] is given as above 0.1%. In addition, in assay [2], the “LC50 MW” value is 0.009%. Further, the “LC50 HF” value in assay [3] was below 100 µg. The “LC50 CL” value in assay [4] stood at 0.0017%.

As for `COc1ccc(N=C(OCc2ccc(F)c(Oc3ccccc3)c2)C(C)C)cc1F` [Compound 435], the “LC50 TBW E” value in assay [1] amounted to 0.04%. The “LC50 MW” value in assay [2] was above 0.01%. Also, the “LC50 HF” value in assay [3] is below 100 µg. For the same molecule, the “LC50 CL” value in assay [4] was found to be 0.002%.

As for `CC(C)C(=Nc1cccc(OC(F)(F)F)c1)OCc1ccc(F)c(Oc2ccc(Cl)cc2)c1` [Compound 436], the “LC50 TBW E” value in assay [1] is recorded as below 0.1%. For the same molecule, the “LC50 MW” value in assay [2] was above 0.01%. Also, the “LC50 HF” value in assay [3] was below 100 µg. In assay [4], the “LC50 CL” value was determined as 0.00075%.

For the molecule `CC(C)C(=Nc1cccc(OC(F)(F)F)c1)OCc1ccc(F)c(Oc2ccccc2)c1` [Compound 437], the “LC50 TBW E” value in assay [1] is given as 0.025%. For the same molecule, the “LC50 MW” value in assay [2] is listed as above 0.01%. In assay [3], the “LC50 HF” value was below 100 µg. Also, in assay [4], the “LC50 CL” value is 0.00075%.

On to `CCc1ccc(N=C(OCc2cccc(Oc3ccc(F)cc3)c2)C(C)C)cc1Cl` [Compound 438], for which the “LC50 TBW E” value in assay [1] is below 0.1%. Moreover, the “LC50 MW” value in assay [2] is recorded as above 0.01%. Besides, in assay [3], the “LC50 HF” value was above 100 µg. Besides, the “LC50 CL” value in assay [4] turned out to be 0.0009%.

Take `CCOc1ccc(N=C(OCc2ccc(F)c(Oc3ccccc3)c2)C(C)C)cc1F` [Compound 439]: the “LC50 TBW E” value in assay [1] is above 0.1%. The “LC50 MW” value in assay [2] is above 0.01%. In assay [3], the “LC50 HF” value is above 100 µg. The “LC50 CL” value in assay [4] came to 0.00045%.

In the case of `CCCc1ccc(N=C(OCc2ccc(F)c(Oc3ccc(F)cc3)c2)C(C)C)cc1` [Compound 440], the “LC50 TBW E” value in assay [1] is on record as below 0.1%. For the same molecule, in assay [2], the “LC50 MW” value is above 0.01%. Besides, in assay [3], the “LC50 HF” value was above 100 µg. The “LC50 CL” value in assay [4] was found to be 0.002%.

Take `CC(C)C(=Nc1ccc(Cl)c(F)c1)OCc1ccc(F)c(Oc2ccc(F)cc2)c1` [Compound 441]: the “LC50 TBW E” value in assay [1] worked out at 0.016%. Besides, the “LC50 MW” value in assay [2] was determined as 0.006%. In addition, the “LC50 HF” value in assay [3] was below 100 µg. For the same molecule, in assay [4], the “LC50 CL” value stood at 0.000025%.

As to `C=C(C)C(=Nc1ccc(C(F)(F)F)cc1)OCc1cccc(Oc2ccc(F)cc2)c1` [Compound 442], in assay [1], the “LC50 TBW E” value was 0.035%. For the same molecule, the “LC50 MW” value in assay [2] was above 0.01%. Further, in assay [3], the “LC50 HF” value is below 100 µg. The “LC50 CL” value in assay [4] was found to be 0.0007%.

Consider `Fc1ccc(COC(=Nc2ccc(C(F)(F)F)cc2)C2CC2)cc1Oc1ccccc1` [Compound 443], for which the “LC50 TBW E” value in assay [1] came out at 0.017%. The “LC50 MW” value in assay [2] is below 0.01%. In assay [3], the “LC50 HF” value was below 100 µg. The “LC50 CL” value in assay [4] is listed as 0.00015%.
